Data reported in ChEMBL document CHEMBL3232977, “Medicinal chemistry optimization of antiplasmodial imidazopyridazine hits from high throughput screening of a SoftFocus kinase library: part 1” (J Med Chem, 2014).

What was measured:
[1] = Hepatic extraction ratio in human liver microsomes at 1 uM up to 60 mins by LC-MS analysis; assay type: ADME; conditions: read-out: ERH
[2] = system: Plasmodium falciparum; assay: microbe, parasite or virus in culture; conditions: K1
Description: Antimalarial activity against multidrug-resistant Plasmodium falciparum K1

[3] = system: Plasmodium falciparum; assay: microbe, parasite or virus in culture; conditions: NF54
Description: Antimalarial activity against drug-sensitive Plasmodium falciparum NF54

[4] = physchem; conditions: 0.01 M HCl, pH 2
Description: Solubility of the compound in 0.01M HCl at pH 2

Q: Which hepatic extraction ratio at 1 h, 1 µM [1] does the source give for `COc1ccc(-c2cnc3ccc(-c4cccnc4)nn23)cc1OC` here?
A: 0.92

Q: What about the IC50 [2] of the same molecule?
A: 23.5 nM

Q: And the IC50 [3]?
A: 25.9 nM

Q: For `CS(=O)(=O)c1cccc(-c2ccc3ncc(-c4ccncc4)n3n2)c1`, which solubility [4] is on record?
A: > 100 µg/mL

Q: And the IC50 [2]?
A: 28 nM

Q: What about the IC50 [3] of the same molecule?
A: 46 nM

Q: Which solubility [4] does the source give for `CC(C)(C)OC(=O)NCc1cccc(-c2ccc3ncc(-c4ccncc4)n3n2)c1` here?
A: > 100 µg/mL

Q: What about the IC50 [2] of the same molecule?
A: 97 nM

Q: And the IC50 [3]?
A: 95 nM

Q: Which solubility [4] does the source give for `FC(F)(F)Oc1cccc(-c2ccc3ncc(-c4ccncc4)n3n2)c1` here?
A: > 100 µg/mL

Q: And the IC50 [2]?
A: 118 nM

Q: What about the IC50 [3] of the same molecule?
A: 146 nM

Q: For `CC(C)(C)c1cccc(-c2ccc3ncc(-c4ccncc4)n3n2)c1`, which solubility [4] is on record?
A: > 100 µg/mL

Q: What about the IC50 [2] of the same molecule?
A: 122 nM

Q: And the IC50 [3]?
A: 137 nM

Q: Which solubility [4] does the source give for `Fc1ccc(-c2ccc3ncc(-c4ccncc4)n3n2)cc1` here?
A: > 100 µg/mL

Q: And the IC50 [2]?
A: 138 nM

Q: What about the IC50 [3] of the same molecule?
A: 186 nM

Q: With `Clc1cccc(-c2ccc3ncc(-c4ccncc4)n3n2)c1` as the molecule, how does the solubility [4] read?
A: > 100 µg/mL

Q: What about the IC50 [2] of the same molecule?
A: 183 nM

Q: What about the IC50 [3] of the same molecule?
A: 202 nM

Q: Which results are given for `c1cc(-c2ccc3ncc(-c4ccncc4)n3n2)c2ccncc2c1`?
A: solubility [4]: > 100 µg/mL; IC50 [2]: 192 nM; IC50 [3]: 223 nM

Q: For `Fc1cccc(-c2ccc3ncc(-c4ccncc4)n3n2)c1`, which solubility [4] is on record?
A: > 100 µg/mL

Q: And the IC50 [2]?
A: 203 nM

Q: What about the IC50 [3] of the same molecule?
A: 272 nM

Q: Which results are given for `c1cc(-c2ccc3ncc(-c4ccncc4)n3n2)cc(N2CCOCC2)c1`?
A: solubility [4]: > 100 µg/mL; IC50 [2]: 246 nM; IC50 [3]: 283 nM

Q: For `Fc1ccc(-c2ccc3ncc(-c4ccncc4)n3n2)cc1F`, which solubility [4] is on record?
A: > 100 µg/mL

Q: And the IC50 [2]?
A: 415 nM

Q: What about the IC50 [3] of the same molecule?
A: 496 nM

Q: Which results are given for `COc1ccc(-c2ccc3ncc(-c4ccncc4)n3n2)cn1`?
A: solubility [4]: > 100 µg/mL; IC50 [2]: 412 nM; IC50 [3]: 603 nM

Q: Which solubility [4] does the source give for `NCc1ccc(-c2ccc3ncc(-c4ccncc4)n3n2)cc1` here?
A: > 100 µg/mL

Q: And the IC50 [2]?
A: 491 nM

Q: And the IC50 [3]?
A: 335 nM

Q: For `NCc1cccc(-c2ccc3ncc(-c4ccncc4)n3n2)c1`, which solubility [4] is on record?
A: > 100 µg/mL

Q: And the IC50 [2]?
A: 588 nM

Q: What about the IC50 [3] of the same molecule?
A: 289 nM

Q: With `FC(F)(F)c1ccc(-c2ccc3ncc(-c4ccncc4)n3n2)cn1` as the molecule, how does the solubility [4] read?
A: > 100 µg/mL

Q: And the IC50 [2]?
A: 873 nM

Q: What about the IC50 [3] of the same molecule?
A: 964 nM

Q: Which results are given for `FC(F)(F)Oc1ccc(-c2ccc3ncc(-c4ccncc4)n3n2)cc1`?
A: solubility [4]: > 100 µg/mL; IC50 [2]: 980 nM; IC50 [3]: 1060 nM

Q: Which solubility [4] does the source give for `CN1CCN(S(=O)(=O)c2ccc(-c3ccc4ncc(-c5ccncc5)n4n3)cc2)CC1` here?
A: > 100 µg/mL

Q: What about the IC50 [2] of the same molecule?
A: 1250 nM

Q: And the IC50 [3]?
A: 739 nM

Q: With `CC(C)(C)c1ccc(-c2ccc3ncc(-c4ccncc4)n3n2)cc1` as the molecule, how does the solubility [4] read?
A: > 100 µg/mL

Q: And the IC50 [2]?
A: 1420 nM

Q: What about the IC50 [3] of the same molecule?
A: 1880 nM

Q: What does the source list for `O=S(=O)(c1ccc(-c2ccc3ncc(-c4ccncc4)n3n2)cc1)N1CCOCC1`?
A: solubility [4]: > 100 µg/mL; IC50 [2]: 1490 nM; IC50 [3]: 2240 nM

Q: With `CC(C)(C)OC(=O)NCc1ccc(-c2ccc3ncc(-c4ccncc4)n3n2)cc1` as the molecule, how does the solubility [4] read?
A: > 100 µg/mL

Q: And the IC50 [2]?
A: 1610 nM

Q: What about the IC50 [3] of the same molecule?
A: 1630 nM

Q: Which solubility [4] does the source give for `c1cnc2c(-c3ccc4ncc(-c5ccncc5)n4n3)cccc2c1` here?
A: > 100 µg/mL

Q: What about the IC50 [2] of the same molecule?
A: 1670 nM

Q: And the IC50 [3]?
A: 2150 nM

Q: Which results are given for `c1cc(-c2cnc3ccc(-c4ccc(N5CCOCC5)cc4)nn23)ccn1`?
A: solubility [4]: > 100 µg/mL; IC50 [2]: > 2800 nM; IC50 [3]: > 2800 nM

Q: Which solubility [4] does the source give for `CS(=O)(=O)c1ccc(-c2ccc3ncc(-c4ccncc4)n3n2)cc1` here?
A: > 100 µg/mL

Q: And the IC50 [2]?
A: > 2850 nM

Q: What about the IC50 [3] of the same molecule?
A: > 2850 nM

Q: For `C1=C(c2ccc3ncc(-c4ccncc4)n3n2)Cc2nonc2C1`, which solubility [4] is on record?
A: > 100 µg/mL

Q: What about the IC50 [2] of the same molecule?
A: > 3180 nM

Q: And the IC50 [3]?
A: > 3180 nM

Q: For `CS(=O)(=O)c1ccc(-c2cnc3ccc(-c4cccc(S(=O)(=O)NC5CC5)c4)nn23)cc1`, which solubility [4] is on record?
A: > 100 µg/mL

Q: What about the IC50 [2] of the same molecule?
A: 0.58 nM

Q: What about the IC50 [3] of the same molecule?
A: 0.66 nM

Q: Which solubility [4] does the source give for `CS(=O)(=O)c1ccc(-c2cnc3ccc(-c4cccc(S(=O)(=O)NCc5ccccc5)c4)nn23)cc1` here?
A: > 100 µg/mL

Q: What about the IC50 [2] of the same molecule?
A: 3.3 nM

Q: And the IC50 [3]?
A: 3.5 nM

Q: Which solubility [4] does the source give for `CS(=O)(=O)c1ccc(-c2cnc3ccc(-c4cccc(C(=O)N5CCCCC5)c4)nn23)cc1` here?
A: > 100 µg/mL

Q: What about the IC50 [2] of the same molecule?
A: 7.2 nM

Q: What about the IC50 [3] of the same molecule?
A: 6.5 nM

Q: With `CS(=O)(=O)c1ccc(-c2cnc3ccc(-c4cccc(C(=O)NS(=O)(=O)C5CC5)c4)nn23)cc1` as the molecule, how does the solubility [4] read?
A: > 100 µg/mL

Q: And the IC50 [2]?
A: 11 nM

Q: And the IC50 [3]?
A: 14 nM

Q: Which results are given for `CS(=O)(=O)Nc1cccc(-c2ccc3ncc(-c4ccc(S(C)(=O)=O)cc4)n3n2)c1`?
A: solubility [4]: > 100 µg/mL; IC50 [2]: 19 nM; IC50 [3]: 19 nM

Q: For `CS(=O)(=O)c1ccc(-c2cnc3ccc(-c4cccc(C(F)(F)F)c4)nn23)cc1`, which solubility [4] is on record?
A: > 100 µg/mL

Q: And the IC50 [2]?
A: 55 nM

Q: And the IC50 [3]?
A: 79 nM

Q: For `CS(=O)(=O)c1ccc(-c2cnc3ccc(-c4cccc(C(N)=O)c4)nn23)cc1`, which solubility [4] is on record?
A: > 100 µg/mL

Q: And the IC50 [2]?
A: 99 nM

Q: What about the IC50 [3] of the same molecule?
A: 102 nM

Q: Which results are given for `CS(=O)(=O)c1ccc(-c2cnc3ccc(-c4cccc(C#N)c4)nn23)cc1`?
A: solubility [4]: > 100 µg/mL; IC50 [2]: 96 nM; IC50 [3]: 107 nM

Q: With `CN(C)c1cccc(-c2ccc3ncc(-c4ccc(S(C)(=O)=O)cc4)n3n2)c1` as the molecule, how does the solubility [4] read?
A: > 100 µg/mL

Q: What about the IC50 [2] of the same molecule?
A: 107 nM

Q: What about the IC50 [3] of the same molecule?
A: 117 nM

Q: With `CS(=O)(=O)c1ccc(-c2cnc3ccc(-c4ccc(C(F)(F)F)cc4)nn23)cc1` as the molecule, how does the solubility [4] read?
A: > 100 µg/mL

Q: What about the IC50 [2] of the same molecule?
A: 134 nM

Q: And the IC50 [3]?
A: 189 nM

Q: What does the source list for `CS(=O)(=O)c1ccc(-c2cnc3ccc(-c4ccc(C(=O)NC5CCCC5)cc4)nn23)cc1`?
A: solubility [4]: > 100 µg/mL; IC50 [2]: 146 nM; IC50 [3]: 154 nM

Q: Which solubility [4] does the source give for `CS(=O)(=O)c1ccc(-c2cnc3ccc(-c4ccc(F)c(Cl)c4)nn23)cc1` here?
A: > 100 µg/mL

Q: What about the IC50 [2] of the same molecule?
A: 152 nM

Q: And the IC50 [3]?
A: 179 nM

Q: With `CC(C)(C)NC(=O)c1ccc(F)c(-c2ccc3ncc(-c4ccc(S(C)(=O)=O)cc4)n3n2)c1` as the molecule, how does the solubility [4] read?
A: > 100 µg/mL

Q: And the IC50 [2]?
A: 155 nM

Q: And the IC50 [3]?
A: 159 nM

Q: Which solubility [4] does the source give for `CS(=O)(=O)c1ccc(-c2cnc3ccc(-c4ccc(C(F)(F)F)c(F)c4)nn23)cc1` here?
A: > 100 µg/mL

Q: And the IC50 [2]?
A: 315 nM

Q: And the IC50 [3]?
A: 393 nM

Q: With `CS(=O)(=O)c1ccc(-c2cnc3ccc(-c4ccc(C(F)(F)F)nc4)nn23)cc1` as the molecule, how does the solubility [4] read?
A: > 100 µg/mL

Q: And the IC50 [2]?
A: 633 nM

Q: And the IC50 [3]?
A: 763 nM

Q: Which solubility [4] does the source give for `CS(=O)(=O)c1ccc(-c2ccc3ncc(-c4ccc(S(C)(=O)=O)cc4)n3n2)cc1` here?
A: > 100 µg/mL

Q: What about the IC50 [2] of the same molecule?
A: 753 nM

Q: What about the IC50 [3] of the same molecule?
A: 706 nM

Q: For `CS(=O)(=O)c1ccc(-c2cnc3ccc(-c4cc(C(=O)NC5CCCCC5)ccc4F)nn23)cc1`, which solubility [4] is on record?
A: > 100 µg/mL

Q: What about the IC50 [2] of the same molecule?
A: > 2030 nM

Q: And the IC50 [3]?
A: > 2030 nM

Q: Which results are given for `c1cncc(-c2ccc3ncc(-c4cccnc4)n3n2)c1`?
A: solubility [4]: > 100 µg/mL; IC50 [2]: 1070 nM; IC50 [3]: 1270 nM

Q: Which solubility [4] does the source give for `CS(=O)(=O)c1ccc(-c2ccc3ncc(-c4cccnc4)n3n2)cc1` here?
A: > 100 µg/mL

Q: And the IC50 [2]?
A: > 2850 nM

Q: What about the IC50 [3] of the same molecule?
A: > 2850 nM

Q: Which hepatic extraction ratio at 1 h, 1 µM [1] does the source give for `CS(=O)(=O)Nc1cccc(-c2ccc3ncc(-c4ccc([S+](N)[O-])cc4)n3n2)c1` (configuration not stated) here?
A: 0.42

Q: What about the solubility [4] of the same molecule?
A: > 100 µg/mL

Q: What about the IC50 [2] of the same molecule?
A: 20 nM

Q: What about the IC50 [3] of the same molecule?
A: 18 nM

Q: For `N[S+]([O-])c1ccc(-c2ccc3ncc(-c4ccc([S+](N)[O-])cc4)n3n2)cc1` (configuration not stated), which solubility [4] is on record?
A: > 100 µg/mL

Q: What about the IC50 [2] of the same molecule?
A: > 2330 nM

Q: And the IC50 [3]?
A: > 2330 nM

Q: With `CN(C)S(=O)(=O)c1ccc(-c2ccc3ncc(-c4ccc(S(=O)(=O)N(C)C)cc4)n3n2)cc1` as the molecule, how does the solubility [4] read?
A: > 100 µg/mL

Q: What about the IC50 [2] of the same molecule?
A: > 2060 nM

Q: And the IC50 [3]?
A: > 2060 nM

Q: What does the source list for `CS(=O)(=O)c1ccc(-c2ccc3ncc(-c4ccc(C(F)(F)F)cc4)n3n2)cc1`?
A: hepatic extraction ratio at 1 h, 1 µM [1]: < 0.28; solubility [4]: > 100 µg/mL; IC50 [2]: 668 nM; IC50 [3]: 764 nM

Q: With `O=C(c1ccc(-c2ccc3ncc(-c4ccc(C(F)(F)F)cc4)n3n2)cc1)N1CCOCC1` as the molecule, how does the hepatic extraction ratio at 1 h, 1 µM [1] read?
A: 0.59

Q: And the solubility [4]?
A: > 100 µg/mL

Q: And the IC50 [2]?
A: 732 nM

Q: And the IC50 [3]?
A: 763 nM
